The results in this text go back to paper PMC7026418, “The kinase polypharmacology landscape of clinical PARP inhibitors” (Scientific Reports, 2020).

Among the targets are CSNK1D (Homo sapiens, UniProt P48730); LCK (Homo sapiens, UniProt P06239); PIM2 (Homo sapiens, UniProt Q9P1W9); RAF1 (Homo sapiens, UniProt P04049).
Common to all, as to experiment: biochemical
Holding throughout (set-up): DiscoveRx KINOMEscan active site-directed competition binding; percent of control kinase bound to immobilised ligand

For a further test, the target named is T1, GRK7 (Homo sapiens, UniProt Q8WTQ7).
T1 sequence (Q8WTQ7 1-553): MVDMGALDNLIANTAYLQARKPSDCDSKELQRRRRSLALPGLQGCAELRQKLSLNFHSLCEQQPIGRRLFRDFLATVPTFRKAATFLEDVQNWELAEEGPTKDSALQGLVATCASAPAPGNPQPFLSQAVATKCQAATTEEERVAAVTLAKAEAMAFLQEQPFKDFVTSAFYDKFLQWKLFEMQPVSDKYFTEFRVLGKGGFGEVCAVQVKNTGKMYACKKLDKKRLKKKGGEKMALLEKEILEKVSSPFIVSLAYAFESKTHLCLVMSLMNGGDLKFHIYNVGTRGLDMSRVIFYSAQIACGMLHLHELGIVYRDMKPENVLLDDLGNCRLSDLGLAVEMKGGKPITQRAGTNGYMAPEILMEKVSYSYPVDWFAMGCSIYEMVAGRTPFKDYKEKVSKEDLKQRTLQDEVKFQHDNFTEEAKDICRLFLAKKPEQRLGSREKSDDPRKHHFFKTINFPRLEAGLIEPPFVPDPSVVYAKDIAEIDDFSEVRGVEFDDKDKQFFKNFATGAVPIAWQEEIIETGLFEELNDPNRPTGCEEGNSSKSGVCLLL

In the next test the target is T2, FLT3(D835V) (Homo sapiens, UniProt P36888, D835V).
T2 sequence (P36888 1-993 D835V): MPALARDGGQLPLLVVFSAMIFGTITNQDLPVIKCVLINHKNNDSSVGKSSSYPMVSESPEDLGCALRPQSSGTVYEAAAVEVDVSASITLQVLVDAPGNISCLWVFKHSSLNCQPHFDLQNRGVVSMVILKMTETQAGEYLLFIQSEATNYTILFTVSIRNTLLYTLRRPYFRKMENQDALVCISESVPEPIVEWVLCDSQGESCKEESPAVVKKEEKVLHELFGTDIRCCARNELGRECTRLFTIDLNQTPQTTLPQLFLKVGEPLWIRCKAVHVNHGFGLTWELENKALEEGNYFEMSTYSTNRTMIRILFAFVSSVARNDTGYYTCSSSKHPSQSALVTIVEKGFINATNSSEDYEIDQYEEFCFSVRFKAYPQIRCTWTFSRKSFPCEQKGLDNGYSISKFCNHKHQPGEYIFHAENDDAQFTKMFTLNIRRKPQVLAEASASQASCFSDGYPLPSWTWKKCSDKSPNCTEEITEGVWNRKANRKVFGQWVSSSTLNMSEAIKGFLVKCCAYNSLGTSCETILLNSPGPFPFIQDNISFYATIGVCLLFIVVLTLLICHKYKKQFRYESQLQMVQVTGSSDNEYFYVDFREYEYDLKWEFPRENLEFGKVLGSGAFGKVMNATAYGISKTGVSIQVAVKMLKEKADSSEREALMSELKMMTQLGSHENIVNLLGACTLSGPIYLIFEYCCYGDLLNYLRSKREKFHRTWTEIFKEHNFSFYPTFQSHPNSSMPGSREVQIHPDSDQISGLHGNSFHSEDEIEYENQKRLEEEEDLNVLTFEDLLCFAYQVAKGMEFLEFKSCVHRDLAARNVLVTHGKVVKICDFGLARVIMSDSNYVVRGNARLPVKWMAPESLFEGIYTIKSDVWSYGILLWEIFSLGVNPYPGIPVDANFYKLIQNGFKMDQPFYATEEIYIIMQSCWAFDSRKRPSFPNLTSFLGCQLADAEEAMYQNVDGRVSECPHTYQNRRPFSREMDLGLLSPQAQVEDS

The mark [1] stands for this setting: read-out: Rucaparib / %Ctrl @ 10000nM, binding competition, % of control.
Where [2] appears, read: read-out: Talazoparib (BMN 673) / %Ctrl @ 10000nM.
Setting [3] is: read-out: Niraparib (MK-4827) / %Ctrl @ 10000nM.
Setting [4] is: read-out: Olaparib / %Ctrl @ 10000nM.

Read-outs that look alike come from different tables or passages of the source.

CSNK1D, sequence (P48730 whole entry): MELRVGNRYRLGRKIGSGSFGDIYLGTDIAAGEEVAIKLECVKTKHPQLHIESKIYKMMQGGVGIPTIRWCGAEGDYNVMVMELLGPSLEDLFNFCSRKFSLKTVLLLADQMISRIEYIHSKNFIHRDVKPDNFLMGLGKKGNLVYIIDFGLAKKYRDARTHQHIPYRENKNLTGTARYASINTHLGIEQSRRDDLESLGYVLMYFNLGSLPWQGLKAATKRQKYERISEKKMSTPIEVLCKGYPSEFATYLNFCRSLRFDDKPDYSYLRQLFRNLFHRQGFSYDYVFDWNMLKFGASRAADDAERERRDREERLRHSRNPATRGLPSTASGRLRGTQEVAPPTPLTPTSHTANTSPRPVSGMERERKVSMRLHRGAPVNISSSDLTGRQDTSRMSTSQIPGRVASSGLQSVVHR
LCK, sequence (P06239 whole entry): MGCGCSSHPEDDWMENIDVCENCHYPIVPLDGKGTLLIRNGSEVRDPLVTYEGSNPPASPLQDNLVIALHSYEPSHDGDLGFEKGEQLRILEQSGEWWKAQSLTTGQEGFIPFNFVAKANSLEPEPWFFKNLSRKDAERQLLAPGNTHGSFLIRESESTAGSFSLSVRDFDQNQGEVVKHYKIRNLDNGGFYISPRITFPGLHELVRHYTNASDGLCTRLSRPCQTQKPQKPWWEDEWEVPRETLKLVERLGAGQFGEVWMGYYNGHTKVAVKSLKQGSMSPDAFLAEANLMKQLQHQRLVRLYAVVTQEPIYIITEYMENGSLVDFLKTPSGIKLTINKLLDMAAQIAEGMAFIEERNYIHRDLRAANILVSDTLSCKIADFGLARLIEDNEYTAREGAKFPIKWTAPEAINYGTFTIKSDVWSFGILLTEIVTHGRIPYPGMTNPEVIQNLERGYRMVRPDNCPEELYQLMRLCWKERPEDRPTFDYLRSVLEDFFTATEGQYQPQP
PIM2, sequence (Q9P1W9 whole entry): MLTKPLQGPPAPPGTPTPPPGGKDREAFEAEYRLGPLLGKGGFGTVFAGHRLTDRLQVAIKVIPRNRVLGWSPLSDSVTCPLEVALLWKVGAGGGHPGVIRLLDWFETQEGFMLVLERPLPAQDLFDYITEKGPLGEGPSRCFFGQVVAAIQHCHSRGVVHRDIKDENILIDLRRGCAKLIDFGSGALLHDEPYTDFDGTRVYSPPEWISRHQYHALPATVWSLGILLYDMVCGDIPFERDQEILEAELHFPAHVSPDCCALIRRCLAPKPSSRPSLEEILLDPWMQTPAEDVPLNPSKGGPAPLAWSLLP
RAF1, sequence (P04049 whole entry): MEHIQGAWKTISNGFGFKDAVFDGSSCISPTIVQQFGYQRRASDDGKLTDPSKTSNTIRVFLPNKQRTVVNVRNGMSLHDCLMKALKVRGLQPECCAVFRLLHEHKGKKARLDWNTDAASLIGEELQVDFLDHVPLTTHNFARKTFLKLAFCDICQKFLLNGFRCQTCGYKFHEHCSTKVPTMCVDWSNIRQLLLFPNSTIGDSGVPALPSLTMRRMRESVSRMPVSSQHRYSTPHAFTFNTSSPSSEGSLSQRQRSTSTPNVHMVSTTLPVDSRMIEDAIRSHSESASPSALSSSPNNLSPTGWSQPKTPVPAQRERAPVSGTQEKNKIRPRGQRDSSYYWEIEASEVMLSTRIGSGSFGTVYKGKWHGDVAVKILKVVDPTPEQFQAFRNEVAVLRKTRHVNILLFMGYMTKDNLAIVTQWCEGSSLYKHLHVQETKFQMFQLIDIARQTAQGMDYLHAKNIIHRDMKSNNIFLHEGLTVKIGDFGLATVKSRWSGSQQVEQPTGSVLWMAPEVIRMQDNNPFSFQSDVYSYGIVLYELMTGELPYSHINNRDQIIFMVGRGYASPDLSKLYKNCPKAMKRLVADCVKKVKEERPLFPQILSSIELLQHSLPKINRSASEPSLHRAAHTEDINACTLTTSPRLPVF

Turning to `CNCc1ccc(-c2[nH]c3cc(F)cc4c3c2CCNC4=O)cc1` [Rucaparib], the percent of control binding at 10 µM on GRK7 (setting [1]) is 48%; on CSNK1D (setting [1]), 63%; at LCK (setting [1]) it was 95%; at PIM2 (setting [1]), 36%; on RAF1 (setting [1]) it was 99%. Moreover, at FLT3(D835V) (binding competition, % of control), the “Rucaparib / %Ctrl @ 10000nM” value amounted to 15%.

Turning to `Cn1ncnc1[C@H]1c2n[nH]c(=O)c3cc(F)cc(c23)N[C@@H]1c1ccc(F)cc1` [Talazoparib], the percent of control binding at 10 µM on GRK7 (setting [2]) is 100%; on CSNK1D (setting [2]), 100%; on LCK (setting [2]), 90%; at PIM2 (setting [2]) it was 98%; at FLT3(D835V) (setting [2]) it was 100%; at RAF1 (setting [2]), 90%.

Turning to `NC(=O)c1cccc2cn(-c3ccc([C@@H]4CCCNC4)cc3)nc12` [Niraparib], the percent of control binding at 10 µM is 88% at GRK7 (setting [3]); 57% at CSNK1D (setting [3]); 82% on LCK (setting [3]); 13% at PIM2 (setting [3]); 83% on FLT3(D835V) (setting [3]); 93% at RAF1 (setting [3]).

Take `O=C(c1cc(Cc2n[nH]c(=O)c3ccccc23)ccc1F)N1CCN(C(=O)C2CC2)CC1` [Olaparib]: the percent of control binding at 10 µM was 85% on GRK7 (setting [4]); 96% at CSNK1D (setting [4]); 100% at LCK (setting [4]); 100% at PIM2 (setting [4]); 100% at FLT3(D835V) (setting [4]); 89% at RAF1 (setting [4]).
